Measurements taken from the supplement of paper PMC11451515.

Test system: P12-Ichikawa
Assay: cell viability relative to DMSO control; higher = less cytotoxic
Settings: 48 h
Procedure, shortened: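 NOMO1 or SEM (500 cells/well) or P12-Ichikawa (1000 cells/well) leukemia cells were adapted for at least four passages in each medium. They were seeded in 1536-well plates (5 μl) and pin-dosed with library compounds in DMSO over an 11-point threefold series, 47 μM to 0.79 nM. CellTiter-Glo One luminescence was read after 48 h at 37°C. Viability is the per-plate percentage relative to DMSO wells, with cell-free wells as background.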

[1] = HPLM + 10% dialyzed FBS, 0.000781 µM
[2] = HPLM + 10% dialyzed FBS, 0.00234 µM
[3] = HPLM + 10% dialyzed FBS, 0.00702 µM
[4] = HPLM + 10% dialyzed FBS, 0.0211 µM
[5] = HPLM + 10% dialyzed FBS, 0.0632 µM
[6] = HPLM + 10% dialyzed FBS, 0.19 µM
[7] = HPLM + 10% dialyzed FBS, 0.569 µM
[8] = HPLM + 10% dialyzed FBS, 1.71 µM
[9] = HPLM + 10% dialyzed FBS, 5.12 µM
[10] = HPLM + 10% dialyzed FBS, 15.4 µM
[11] = HPLM + 10% dialyzed FBS, 46.1 µM
[12] = RPMI 5 mM glucose + 10% FBS, 0.000781 µM
[13] = RPMI 5 mM glucose + 10% FBS, 0.00234 µM
[14] = RPMI 5 mM glucose + 10% FBS, 0.00702 µM
[15] = RPMI 5 mM glucose + 10% FBS, 0.0211 µM
[16] = RPMI 5 mM glucose + 10% FBS, 0.0632 µM
[17] = RPMI 5 mM glucose + 10% FBS, 0.19 µM
[18] = RPMI 5 mM glucose + 10% FBS, 0.569 µM
[19] = RPMI 5 mM glucose + 10% FBS, 1.71 µM
[20] = RPMI 5 mM glucose + 10% FBS, 5.12 µM
[21] = RPMI 5 mM glucose + 10% FBS, 15.4 µM
[22] = RPMI 5 mM glucose + 10% FBS, 46.1 µM
[23] = RPMI 5 mM glucose + 10% dialyzed FBS, 0.000781 µM
[24] = RPMI 5 mM glucose + 10% dialyzed FBS, 0.00234 µM
[25] = RPMI 5 mM glucose + 10% dialyzed FBS, 0.00702 µM
[26] = RPMI 5 mM glucose + 10% dialyzed FBS, 0.0211 µM
[27] = RPMI 5 mM glucose + 10% dialyzed FBS, 0.0632 µM
[28] = RPMI 5 mM glucose + 10% dialyzed FBS, 0.19 µM
[29] = RPMI 5 mM glucose + 10% dialyzed FBS, 0.569 µM
[30] = RPMI 5 mM glucose + 10% dialyzed FBS, 1.71 µM
[31] = RPMI 5 mM glucose + 10% dialyzed FBS, 5.12 µM
[32] = RPMI 5 mM glucose + 10% dialyzed FBS, 15.4 µM
[33] = RPMI 5 mM glucose + 10% dialyzed FBS, 46.1 µM

Structure (SMILES)	cell viability [1] [%]	cell viability [2] [%]	cell viability [3] [%]	cell viability [4] [%]	cell viability [5] [%]	cell viability [6] [%]	cell viability [7] [%]	cell viability [8] [%]	cell viability [9] [%]	cell viability [10] [%]	cell viability [11] [%]	cell viability [12] [%]	cell viability [13] [%]	cell viability [14] [%]	cell viability [15] [%]	cell viability [16] [%]	cell viability [17] [%]	cell viability [18] [%]	cell viability [19] [%]	cell viability [20] [%]	cell viability [21] [%]	cell viability [22] [%]	cell viability [23] [%]	cell viability [24] [%]	cell viability [25] [%]	cell viability [26] [%]	cell viability [27] [%]	cell viability [28] [%]	cell viability [29] [%]	cell viability [30] [%]	cell viability [31] [%]	cell viability [32] [%]	cell viability [33] [%]
COc1ccc(F)c(F)c1C(=O)c1cnc(NC2CCN([S+](C)(=O)[O-])CC2)nc1N	111	116	114	115	118	112	87.4	77.6	86	67.6	3.92	113	114	126	116	116	117	78.3	72.2	63.7	43.2	4.54	114	121	116	127	116	113	86.8	78.2	58.4	45.9	5.54
Cc1ccc([C@@H]2O[C@H](CO)[C@@H](O)[C@H](O)[C@H]2O)cc1Cc1ccc(-c2ccc(F)cc2)s1	119	112	119	116	126	127	126	127	127	125	90.3	118	121	135	130	129	132	128	126	131	125	77.7	114	117	118	121	132	132	134	131	118	120	69.9
CN(C)c1nc(Cc2ccc(NC(=O)c3ccc(C(F)(F)F)cc3)cc2)nc(N(C)C)c1CC(=O)O	106	100	107	104	105	103	99.5	102	103	98.2	90.3	106	109	99.5	105	109	103	103	108	100	103	98.5	95.7	96.7	99.6	105	94.7	96.9	99.3	96.8	95.1	93.8	85.2
COCCn1c2c([n+](Cc3cnccn3)c1C)C(=O)c1ccccc1C2=O	116	115	113	112	104	51.4	41.9	15.8	5.02	2.55	1.1	110	108	118	106	112	48.9	17.6	6.76	3.92	3.27	2.14	113	108	112	110	106	51.4	11.7	5.22	3.6	2.56	1.9
CNC[C@H](O)[C@@H](O)[C@H](O)[C@H](O)CO	114	124	122	130	123	125	120	134	128	119	119												109	126	124	125	125	126	122	131	123	119	126
CCc1ccc(OCc2ccccc2C(=O)Nc2ccc3nc(C)cc(N)c3c2)cc1	95.7	107	110	114	118	116	113	121	110	6.84	4.54	88.2	107	112	113	108	114	118	123	108	41.3	4.15	89.3	103	108	111	104	110	112	121	103	47.5	4.84
CCn1nnc2c(N3CCOCC3)nc(-c3ccc(NC(=O)Nc4ccc(C(=O)N5CCN(C)CC5)cc4)cc3)nc21	103	109	99.8	92.6	91.6	76.3	101	71	76	70.2	68.9	97.5	98.4	99.4	83.6	72.3	55.3	94.3	55.2	54.9	56.9	59.4	93.7	106	88.5	70.6	69.9	59.6	103	56.9	58.8	54.4	50.1
CO[C@@H](C(=O)N1Cc2[nH]nc(NC(=O)c3ccc(N4CCN(C)CC4)cc3)c2C1)c1ccccc1	89.1	93.6	93	95.9	80	35.4	15	20.3	23.2	25	50.8	90	87.3	84.9	89	75.9	30.3	19.9	28.9	28.3	26.1	42.3	87.1	95.8	95.9	95.5	82.8	34.5	28.4	37.9	39.4	42.8	54.8
CC(=O)OC[C@@H]1O[C@H]([C@H](OC(C)=O)[C@@H]1OC(C)=O)N2\C=C/C(=O)NC2=O	119	120	128	122	114	120	110	110	113	106	71.8	121	117	121	116	117	108	102	113	108	114	98.3	120	106	116	111	111	111	111	108	99.7	104	92
CCCCc1ccc2[nH]c(NC(=O)OC)nc2c1	104	106	105	101	85.9	22.9	18.4	27.1	13.8	16.2	11	99.7	112	101	106	92.6	17.6	16.8	26.7	24.1	22.2	16.5	92.4	98.4	103	102	97.5	31	25.7	37.7	27.9	29.3	23.1
OC(=O)\C1=C\N(C2CC2)C3=CC(=C(F)C=C3C1=O)N4CCNCC4	110	114	114	111	112	112	115	113	96.6	91.9	68.7	102	104	115	108	112	113	115	100	104	92.3	63.9	99.4	106	113	111	112	108	113	114	99.4	90.5	64.7
Clc2cccc(Cl)c2\N=C1/NCCN1	109	115	71	123	116	123	120	120	116	122	121	109	120	73.8	121	127	130	137	126	135	126	123	95.8	115	80.2	113	115	121	120	120	112	124	124
Cc1cc(Nc2ncc3c(n2)N(C)C(=O)N(c2cc(NC(=O)c4cccc(C(F)(F)F)c4)ccc2C)C3)n(C)n1	116	114	117	120	119	120	114	90.4	79.3	55.8	7.23	106	120	124	123	133	115	105	73.5	66.5	52.5	5.53	111	119	116	132	124	122	111	76.1	72.1	50.9	5.1
Cc1cc(Nc2cc(N3CCN(C)CC3)nc(/C=C/c3ccccc3)n2)n[nH]1	105	111	115	120	118	122	116	12.1	5.08	4.47	5.23	113	108	113	117	121	125	119	41.5	8.43	4.4	4.88	107	114	112	112	121	130	126	37.4	11.6	5.07	5.54
CC(C(C)N1CC(=O)NC(=O)C1)N1CC(=O)NC(=O)C1 (stereo not given)	117	123	121	119	131	130	130	117	109	102	89.6																						
O=C(O)c1ccc(O)c2ncc(N3CCOCC3)cc12	106	105	100	108	107	103	97.2	99.9	98.6	95.6	7.44	102	99.1	96.8	92.8	95.7	97.6	96.6	94.2	87.8	85.2	9.83	98.5	95.2	104	90.9	98	97.7	105	102	81.8	84.7	5.31
